Measurements from paper PMC10886162, “Synthesis of Novel Artemisinin, Ciprofloxacin, and Norfloxacin Hybrids with Potent Antiplasmodial Activity” (Antibiotics, 2024).
pIC50: −log10 of the molar value.

Tests used:
[1] = tested on: CQ-resistant P. falciparum FcB1 strain; assay: In vitro growth inhibition of P. falciparum FcB1 ([3H]-hypoxanthine incorporation); type: cell-based, Plasmodium falciparum
Method: (§1) The chloroquine-resistant FcB1/Colombia and Dd2/Indochina strains of Plasmodium falciparum were obtained from the Protist Collection of the National Museum of Natural History, Paris, France (n° MNHN-CEU-2016-224-PfFCB1 and MNHN-CEU-2016-222-PfDD2). The parasites were maintained in vitro on human erythrocytes in RPMI 1640 medium supplemented by 8% (v/v) heat-inactivated human serum, at 37 °C, under an atmosphere of 5% CO2. The human red blood cells and serum were provided by the Établissement Français du Sang under the C-CPSL-UNT approval no. 13/EFS/126. The in vitro drug susceptibility assays were measured by [^3H]-hypoxanthine incorporation, as previously described. The drug stock solutions were prepared in DMSO. Briefly, the assays were performed in 96-well plates. The compounds were diluted in the culture medium (100 μL per well). The parasite cultures (100 μL, 2% parasitaemia, and 1% final hematocrit) were then added to each well and incubated for 24 h at 37 °C prior to the addition of 0.5 μCi of [^3H]- hypoxanthine (GE Healthcare, Paris, France, 1 to 5 Ci·mmol/mL) per well. After a further incubation of 24 h, the plates were frozen and thawed. The cell lysates were then collected onto fiberglass filters and counted in a liquid scintillation spectrometer. The growth inhibition for each drug concentration was determined through a comparison of the radioactivity incorporated in the treated culture with that in the control culture maintained on the same plate. The drugs were first evaluated for a range of fixed concentrations of 50, 5, 0.5, 0.05, and 0.005 μg/mL. […] The IC50 value was obtained from the drug concentration–response curve, and the results were expressed in μM or nM as the mean values ± standard deviations determined from several independent experiments. Artesunate (46) was used as an antimalarial drug control.

[2] = tested on: CQ-resistant Dd2 strain of P. falciparum; assay: In vitro growth inhibition of P. falciparum Dd2 ([3H]-hypoxanthine incorporation); type: cell-based, Plasmodium falciparum; settings: Plasmodium falciparum; CQ-resistant Dd2; mean +/− SD of at least three independent experiments
Method: as §1

[3] = Plasmodium falciparum, FCB1, CQ-resistant FcB1, IC50 determined from the compound tested at 50, 5, 0.5 µg/mL and 50 and 5 ng/mL in triplicate (footnote b)
[4] = Plasmodium falciparum, FCB1, CQ-resistant FcB1, mean +/− standard deviation of independent experiments (at least four in Tables 1-2, at least three in Tables 3-4)
[5] = Plasmodium falciparum, FCB1, Table 5, CPX or NRX fragments alone
[6] = CQ-resistant FcB1, IC50 determined from the compound tested at 50, 5, 0.5 µg/mL and 50 and 5 ng/mL in triplicate (footnote b)

Compound | pIC50 [1, 3] | also measured
O=C(O)c1cn(C2CC2)c2cc(N3CCNCC3)c(F)cc2c1=O [CPX, ciprofloxacin] | 4.27 | 
C[C@@H]1CCC2[C@@H](C)[C@@H](CCC(=O)N3CCN(c4cc5c(cc4F)c(=O)c(C(=O)O)cn5C4CC4)CC3)O[C@@H]3O[C@@]4(C)CCC1[C@@]23OO4 (stereo partly drawn) [Compound 13, 1-cyclopropyl-6-fluoro-4-oxo-7-(4-(3-((3R,6R,9R,10R,12R,12aR)-3,6,9-trimethyldecahydro-12H-3,12-epoxy[1,2]dioxepino[4,3-i]isochromen-10-yl)propanoyl)piperazin-1-yl)-1,4-dihydroquinoline-3-carboxylic acid] | 5.54 | melting point: 136 to 137 °C
CCOC(=O)c1cn(C2CC2)c2cc(N3CCN(C(=O)C[C@H]4O[C@@H]5O[C@@]6(C)CCC7[C@H](C)CCC([C@H]4C)[C@]75OO6)CC3)c(F)cc2c1=O (stereo partly drawn) [Compound 14, Ethyl 1-cyclopropyl-6-fluoro-4-oxo-7-(4-(2-((3R,6R,9R,10R,12R,12aR)-3,6,9-trimethyldecahydro-12H-3,12-epoxy[1,2]dioxepino[4,3-i]isochromen-10-yl)acetyl)piperazin-1-yl)-1,4-dihydroquinoline-3-carboxylate] | 6.92 | melting point: 142 to 143 °C
CCOC(=O)c1cn(C2CC2)c2cc(N3CCN(C(=O)CC[C@H]4O[C@@H]5O[C@@]6(C)CCC7[C@H](C)CCC([C@H]4C)[C@]75OO6)CC3)c(F)cc2c1=O (stereo partly drawn) [Compound 15, Ethyl 1-cyclopropyl-6-fluoro-4-oxo-7-(4-(3-((3R,6R,9R,10R,12R,12aR)-3,6,9-trimethyldecahydro-12H-3,12-epoxy[1,2]dioxepino[4,3-i]isochromen-10-yl)propanoyl)piperazin-1-yl)-1,4-dihydroquinoline-3-carboxylate] | 5.83 | melting point: 110.4 to 111.5 °C
CCCCOC(=O)c1cn(C2CC2)c2cc(N3CCN(C(=O)CC[C@H]4O[C@@H]5O[C@@]6(C)CCC7[C@H](C)CCC([C@H]4C)[C@]75OO6)CC3)c(F)cc2c1=O (stereo partly drawn) [Compound 17, Butyl 1-cyclopropyl-6-fluoro-4-oxo-7-(4-(3-((3R,6R,9R,10R,12R,12aR)-3,6,9-trimethyldecahydro-12H-3,12-epoxy[1,2]dioxepino[4,3-i]isochromen-10-yl)propanoyl)piperazin-1-yl)-1,4-dihydroquinoline-3-carboxylate] | 6.44 | 
CCn1cc(C(=O)N2CCN(c3ccnc4cc(Cl)ccc34)CC2)c(=O)c2cc(F)c(N3CCN(C(=O)C[C@H]4O[C@@H]5O[C@@]6(C)CCC7[C@H](C)CCC([C@H]4C)[C@]75OO6)CC3)cc21 (stereo partly drawn) [Compound 27, 3-(4-(7-chloroquinolin-4-yl)piperazine-1-carbonyl)-1-ethyl-6-fluoro-7-(4-(2-((3R,6R,9R,10R,12R,12aR)-3,6,9-trimethyldecahydro-12H-3,12-epoxy[1,2]dioxepino[4,3-i]isochromen-10-yl)acetyl)piperazin-1-yl)quinolin-4(1H)-one] |  | pIC50 [1, 4]: 8.18; pIC50 [2]: 7.55; melting point: 173.6 to 174.5 °C
CCOC(=O)c1cn(C2CC2)c2cc(N3CCN(C(c4ccccc4)(c4ccccc4)c4ccccc4)CC3)c(F)cc2c1=O [Compound 32, Ethyl 1-cyclopropyl-6-fluoro-4-oxo-7-(4-tritylpiperazin-1-yl)-1,4-dihydroquinoline-3-carboxylate] | 4.38 | 
CCCCOC(=O)c1cn(C2CC2)c2cc(N3CCN(C(c4ccccc4)(c4ccccc4)c4ccccc4)CC3)c(F)cc2c1=O [Compound 33, Butyl 1-cyclopropyl-6-fluoro-4-oxo-7-(4-tritylpiperazin-1-yl)-1,4-dihydroquinoline-3-carboxylate] | 5.41 | 
CCOC(=O)c1cn(CC)c2cc(N3CCN(C(c4ccccc4)(c4ccccc4)c4ccccc4)CC3)c(F)cc2c1=O [Compound 34, Ethyl 1-ethyl-6-fluoro-4-oxo-7-(4-tritylpiperazin-1-yl)-1,4-dihydroquinoline-3-carboxylate] | 4.07 | 
CCCCOC(=O)c1cn(CC)c2cc(N3CCN(C(c4ccccc4)(c4ccccc4)c4ccccc4)CC3)c(F)cc2c1=O [Compound 35, Butyl 1-ethyl-6-fluoro-4-oxo-7-(4-tritylpiperazin-1-yl)-1,4-dihydroquinoline-3-carboxylate] | 4.58 | 
O=C(c1cn(C2CC2)c2cc(N3CCN(C(c4ccccc4)(c4ccccc4)c4ccccc4)CC3)c(F)cc2c1=O)N1CCN(c2ccnc3cc(Cl)ccc23)CC1 [Compound 36, 3-(4-(7-chloroquinolin-4-yl)piperazine-1-carbonyl)-1-cyclopropyl-6-fluoro-7-(4-tritylpiperazin-1-yl)quinolin-4(1H)-one] | 4.58 | 
CCn1cc(C(=O)N2CCN(c3ccnc4cc(Cl)ccc34)CC2)c(=O)c2cc(F)c(N3CCN(C(c4ccccc4)(c4ccccc4)c4ccccc4)CC3)cc21 [Compound 37, 3-(4-(7-chloroquinolin-4-yl)piperazine-1-carbonyl)-1-ethyl-6-fluoro-7-(4-tritylpiperazin-1-yl)quinolin-4(1H)-one] |  | pIC50 [1, 4]: 6.73; pIC50 [2]: 6.51
CCOC(=O)c1cn(C2CC2)c2cc(N3CCNCC3)c(F)cc2c1=O [Compound 38] | 4.27 | 
CCCCOC(=O)c1cn(C2CC2)c2cc(N3CCNCC3)c(F)cc2c1=O [Compound 39] | 4.87 | pIC50 [1, 5]: 5.15
CCOC(=O)c1cn(CC)c2cc(N3CCNCC3)c(F)cc2c1=O [Compound 40] | 4.71 | pIC50 [1, 5]: 4.34
CCCCOC(=O)c1cn(CC)c2cc(N3CCNCC3)c(F)cc2c1=O [Compound 41] | 4.86 | pIC50 [1, 5]: 5.07
O=C(c1cn(C2CC2)c2cc(N3CCNCC3)c(F)cc2c1=O)N1CCN(c2ccnc3cc(Cl)ccc23)CC1 [Compound 42] | 6.44 | pIC50 [1, 6]: 6.44
CC1CCC2C(C)C(CC(=O)O)OC3OC4(C)CCC1C32OO4 (centres unmarked) [Compound 44, reference compound] | 6.40 | pIC50 [1, 6]: 6.40
CC1CCC2C(C)C(CCC(=O)O)OC3OC4(C)CCC1C32OO4 (centres unmarked) [Compound 45, reference compound] | 6.58 | pIC50 [1, 6]: 6.58
CCn1cc(C(=O)O)c(=O)c2cc(F)c(N3CCNCC3)cc21 [NRX, norfloxacin] | 4.09 | 
